Consider twelve compounds from patent US20220162192A1 (ESCAPE Bio, Inc., priority 2019, published 2022).

Experiment [1] has as its target T1, Recombinant G2019S-LRRK2 protein (Homo sapiens, UniProt Q5S007, G2019S).
T1 construct: purchased Life Technologies PV4881
Description: LanthaScreen Kinase Activity Assay (TR-FRET), G2019S-LRRK2. It counts as biochemical. As to conditions: class symbols; 25 μM ATP, 400 nM LRRKtide, 2.9 nM kinase, 60 min at room temperature. The method in brief: (§1)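 Recombinant wild-type or G2019S LRRK2 (2.9 nM final) phosphorylated fluorescein-LRRKtide (400 nM) with 25 μM ATP in 50 mM Tris pH 8.5, 5 mM MgCl2, 1 mM EGTA, 0.01% Brij-35, 2 mM DTT for 60 min at RT. After EDTA stop, Tb-anti-pERM TR-FRET (520/495 nm ratio) was read. IC50 values came from 11-point, 3-fold compound dilutions.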
(In TR-FRET formats the signal depends on donor and acceptor labels being close together.)

Experiment [2] has as its target T2, Recombinant wild type LRRK2 protein (Homo sapiens, UniProt Q5S007).
T2 construct: purchased Life Technologies PR8604B
Description: LanthaScreen Kinase Activity Assay (TR-FRET), wild type LRRK2. As to conditions: 25 μM ATP, 400 nM LRRKtide, 2.9 nM kinase, 60 min at room temperature, read-out: LRRK2 WT IC50. Type of experiment: biochemical. The method in brief:
as §1

Read-outs that look alike come from different tables or passages of the source. Some results are limits rather than exact numbers.

T1 sequence (Q5S007 whole entry G2019S): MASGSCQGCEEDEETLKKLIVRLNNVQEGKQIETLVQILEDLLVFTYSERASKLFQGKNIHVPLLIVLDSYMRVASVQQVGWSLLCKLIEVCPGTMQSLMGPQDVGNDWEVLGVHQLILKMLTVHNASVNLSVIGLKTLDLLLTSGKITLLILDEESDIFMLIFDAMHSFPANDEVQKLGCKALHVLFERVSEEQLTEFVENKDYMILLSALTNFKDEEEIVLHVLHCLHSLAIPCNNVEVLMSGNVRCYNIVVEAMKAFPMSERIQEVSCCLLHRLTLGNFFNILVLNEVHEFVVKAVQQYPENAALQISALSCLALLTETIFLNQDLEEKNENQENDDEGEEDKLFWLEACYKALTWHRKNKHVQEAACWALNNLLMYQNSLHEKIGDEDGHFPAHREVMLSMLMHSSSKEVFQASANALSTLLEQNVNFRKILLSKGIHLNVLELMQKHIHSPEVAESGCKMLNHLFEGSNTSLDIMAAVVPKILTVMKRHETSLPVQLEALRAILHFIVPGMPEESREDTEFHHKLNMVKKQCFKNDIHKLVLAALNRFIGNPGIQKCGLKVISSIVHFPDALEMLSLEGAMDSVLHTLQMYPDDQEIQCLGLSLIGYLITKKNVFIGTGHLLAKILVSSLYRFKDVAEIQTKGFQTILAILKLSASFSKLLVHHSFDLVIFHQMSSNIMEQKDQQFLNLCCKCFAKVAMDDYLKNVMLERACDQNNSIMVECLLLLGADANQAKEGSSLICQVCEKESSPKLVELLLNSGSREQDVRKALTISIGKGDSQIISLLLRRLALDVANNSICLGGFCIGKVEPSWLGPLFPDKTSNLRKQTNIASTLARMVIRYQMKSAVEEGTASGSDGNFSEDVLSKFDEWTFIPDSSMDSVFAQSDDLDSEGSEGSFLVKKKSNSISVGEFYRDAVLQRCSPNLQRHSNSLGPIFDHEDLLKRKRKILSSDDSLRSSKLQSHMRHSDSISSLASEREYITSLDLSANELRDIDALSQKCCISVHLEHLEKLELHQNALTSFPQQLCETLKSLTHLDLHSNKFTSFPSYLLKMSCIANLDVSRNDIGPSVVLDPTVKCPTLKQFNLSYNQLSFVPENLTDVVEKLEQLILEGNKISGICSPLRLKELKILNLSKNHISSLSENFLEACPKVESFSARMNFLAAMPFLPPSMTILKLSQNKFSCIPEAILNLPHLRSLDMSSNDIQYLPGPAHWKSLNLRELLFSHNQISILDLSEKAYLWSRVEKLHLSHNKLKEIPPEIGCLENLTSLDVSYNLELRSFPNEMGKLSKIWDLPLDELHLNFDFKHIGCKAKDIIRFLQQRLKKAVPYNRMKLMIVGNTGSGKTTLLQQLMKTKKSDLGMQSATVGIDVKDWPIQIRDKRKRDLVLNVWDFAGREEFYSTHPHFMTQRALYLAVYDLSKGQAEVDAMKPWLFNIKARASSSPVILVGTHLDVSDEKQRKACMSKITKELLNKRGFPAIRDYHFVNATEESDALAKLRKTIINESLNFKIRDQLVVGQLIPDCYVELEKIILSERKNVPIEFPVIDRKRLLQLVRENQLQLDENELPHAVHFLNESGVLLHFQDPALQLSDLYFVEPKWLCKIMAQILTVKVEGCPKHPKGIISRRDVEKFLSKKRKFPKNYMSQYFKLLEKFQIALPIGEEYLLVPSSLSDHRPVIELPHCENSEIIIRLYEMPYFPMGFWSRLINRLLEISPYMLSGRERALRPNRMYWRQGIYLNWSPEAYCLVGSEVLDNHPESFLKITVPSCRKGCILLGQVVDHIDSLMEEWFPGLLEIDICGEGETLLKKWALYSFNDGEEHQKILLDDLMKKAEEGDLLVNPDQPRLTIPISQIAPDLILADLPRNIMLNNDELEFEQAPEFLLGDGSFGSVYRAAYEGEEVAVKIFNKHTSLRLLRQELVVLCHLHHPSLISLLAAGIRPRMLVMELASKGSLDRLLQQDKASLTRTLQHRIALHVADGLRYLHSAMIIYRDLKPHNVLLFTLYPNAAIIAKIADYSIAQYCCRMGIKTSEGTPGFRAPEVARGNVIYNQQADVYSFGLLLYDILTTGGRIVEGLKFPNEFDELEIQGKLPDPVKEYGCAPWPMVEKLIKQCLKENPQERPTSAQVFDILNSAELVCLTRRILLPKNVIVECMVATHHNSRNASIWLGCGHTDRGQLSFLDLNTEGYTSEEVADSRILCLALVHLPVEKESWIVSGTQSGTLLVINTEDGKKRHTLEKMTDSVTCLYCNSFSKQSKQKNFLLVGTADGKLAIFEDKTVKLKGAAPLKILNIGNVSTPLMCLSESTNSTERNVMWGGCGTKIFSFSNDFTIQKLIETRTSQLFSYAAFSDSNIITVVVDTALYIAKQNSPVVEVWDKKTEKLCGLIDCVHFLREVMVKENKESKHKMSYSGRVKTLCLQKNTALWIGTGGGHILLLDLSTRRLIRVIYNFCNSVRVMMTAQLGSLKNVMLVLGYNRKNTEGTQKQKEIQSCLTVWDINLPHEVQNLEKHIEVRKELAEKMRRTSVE
T2 sequence (Q5S007 whole entry): as the sequence (Q5S007 whole entry G2019S) above, with S2019G counted along it

For `Cc1cc(-c2n[nH]c3ccc(NC(=O)c4c(F)cc5c(cnn5C)c4F)cc23)cc(C)n1` [Example 83, N-(3-(2,6-Dimethylpyridin-4-yl)-1H-indazol-5-yl)-4,6-difluoro-1-methyl-1H-indazole-5-carboxamide], the IC50 in experiment [1] and in experiment [2] (class symbols) was no more than 100 nM each time.
`COc1cccc(-c2n[nH]c3ccc(NC(=O)c4c(F)cc5c(cnn5C)c4F)cc23)c1` [Example 84, 4,6-Difluoro-N-(3-(3-methoxyphenyl)-1H-indazol-5-yl)-1-methyl-1H-indazole-5-carboxamide]: the 50% inhibitory concentration (IC50) in experiment [1] and in experiment [2] (class symbols) was no more than 100 nM throughout.
For the compound `COc1ccccc1-c1n[nH]c2ccc(NC(=O)c3c(F)cc4c(cnn4C)c3F)cc12` [Example 85, 4,6-Difluoro-N-(3-(2-methoxyphenyl)-1H-indazol-5-yl)-1-methyl-1H-indazole-5-carboxamide], the IC50 in experiment [1] was no more than 100 nM; in experiment [2] (class symbols), 1000 to 10000 nM.
Turning to `Cn1ncc2c(F)c(C(=O)Nc3ccc4[nH]nc(-c5cnn(C(F)F)c5)c4c3)c(F)cc21` [Example 86, N-(3-(1-(Difluoromethyl)-1H-pyrazol-4-yl)-1H-indazol-5-yl)-4,6-difluoro-1-methyl-1H-indazole-5-carboxamide], the half-maximal inhibitory concentration (IC50) in experiment [1] and in experiment [2] (class symbols) was no more than 100 nM throughout.
As for `CN(C)c1ccc(-c2n[nH]c3ccc(NC(=O)c4c(F)cc5c(cnn5C)c4F)cc23)cc1` [Example 87, N-(3-(4-(Dimethylamino)phenyl)-1H-indazol-5-yl)-4,6-difluoro-1-methyl-1H-indazole-5-carboxamide], the IC50 in experiment [1] and in experiment [2] (class symbols) was no more than 100 nM in each case.
As to `CN(C)c1cccc(-c2n[nH]c3ccc(NC(=O)c4c(F)cc5c(cnn5C)c4F)cc23)c1` [Example 88, N-(3-(3-(Dimethylamino)phenyl)-1H-indazol-5-yl)-4,6-difluoro-1-methyl-1H-indazole-5-carboxamide], the IC50 in experiment [1] and in experiment [2] (class symbols) was no more than 100 nM each time.
`COc1ccc(C)cc1-c1n[nH]c2ccc(NC(=O)c3c(F)cc4c(cnn4C)c3F)cc12` [Example 89, 4,6-Difluoro-N-(3-(2-methoxy-5-methylphenyl)-1H-indazol-5-yl)-1-methyl-1H-indazole-5-carboxamide]: the 50% inhibitory concentration (IC50) is no more than 100 nM in experiment [1] and 100 to 1000 nM in experiment [2] (class symbols).
Take `COc1ccc(C)c(-c2n[nH]c3ccc(NC(=O)c4c(F)cc5c(cnn5C)c4F)cc23)c1` [Example 90, 4,6-Difluoro-N-(3-(5-methoxy-2-methylphenyl)-1H-indazol-5-yl)-1-methyl-1H-indazole-5-carboxamide]: the half-maximal inhibitory concentration (IC50) in experiment [1] lay in the range of 100 to 1000 nM; in experiment [2] (class symbols) it was 1000 to 10000 nM.
`Cn1ncc2c(F)c(C(=O)Nc3ccc4[nH]nc(-c5cnccc5C(F)(F)F)c4c3)c(F)cc21` [Example 91, 4,6-Difluoro-1-methyl-N-(3-(4-(trifluoromethyl)pyridin-3-yl)-1H-indazol-5-yl)-1H-indazole-5-carboxamide]: the IC50 lay within 100 to 1000 nM in experiment [1] and 1000 to 10000 nM in experiment [2] (class symbols).
With `Cn1cc(-c2n[nH]c3ccc(NC(=O)c4c(F)cc5c(cnn5C)c4F)cc23)c(C(F)(F)F)n1` [Example 92, 4,6-Difluoro-1-methyl-N-(3-(1-methyl-3-(trifluoromethyl)-1H-pyrazol-4-yl)-1H-indazol-5-yl)-1H-indazole-5-carboxamide], the concentration for half-maximal inhibition (IC50) is no more than 100 nM in experiment [1] and 100 to 1000 nM in experiment [2] (class symbols).
As to `Cn1ncc2c(F)c(C(=O)Nc3ccc4[nH]nc(-c5ccccc5OC(F)(F)F)c4c3)c(F)cc21` [Example 93, 4,6-Difluoro-1-methyl-N-(3-(2-(trifluoromethoxy)phenyl)-1H-indazol-5-yl)-1H-indazole-5-carboxamide], the IC50 in experiment [1] is 1000 to 10000 nM; in experiment [2] (numeric bound instead of class symbol), greater than 10000 nM.
Regarding `Cn1ncc2c(F)c(C(=O)Nc3ccc4[nH]nc(-c5ccc(N6CCOCC6)cc5)c4c3)c(F)cc21` [Example 94, 4,6-Difluoro-1-methyl-N-(3-(4-morpholinophenyl)-1H-indazol-5-yl)-1H-indazole-5-carboxamide], the IC50 in experiment [1] and in experiment [2] (class symbols) was no more than 100 nM in each case.

Usually IC50 stands for the concentration that gives 50% inhibition.
